Results: PMC9452538, “The antimicrobial peptide LI14 combats multidrug-resistant bacterial infections” (Communications Biology, 2022)
Converted amounts (≈) assume the structure as drawn. Bridge positions count the residues as written; N and C are the ends. Ends that are not written are not given here. Peptide text beside a SMILES is read from it.

Experiments:
MDR E. coli B2 = assay: Checkerboard assay with LI14; format: cell-based, Escherichia coli; conditions: for FIC index: antibiotic in combination with LI14, checkerboard 8 × 8, 18 h, ≤0.5 = synergy; for MICa of antibiotic: in the absence of LI14; for MICb of antibiotic: in the presence of ¼ MIC of LI14; for Potentiation: antibiotic potentiation in the presence of ¼ MIC of LI14
Description: (§1) Through checkerboard assay using two-fold serially diluted drugs (8 × 8 matrix), we evaluated the synergistic effects of LI14 with different mechanisms of antibiotics. The absorbance of cultures at 600 nm was determined by a Microplate reader after 18 h of incubation with (1.5 × 10^6 CFUs/mL) bacterial suspension. The FIC index (FICI) was calculated by performing two biological replicates for each combination. The formula is as follows: FIC index = FICIa + FICIb = MICab/MICa + MICba/Mb. An FIC index of ≤0.5 indicates synergy.
(§2) a/bMICs of antibiotics in the absence or presence of ¼ MIC of LI14.
(§3) cDegree of antibiotics potentiation in the presence of ¼ MIC of LI14.
(§4) –, none of potentiation activity.

MRSA T144 [1] = assay: Checkerboard assay with LI14; format: cell-based, Staphylococcus aureus; conditions: for FIC index: antibiotic in combination with LI14, checkerboard; for MICa of antibiotic: in the absence of LI14; for MICb of antibiotic / Potentiation: in the presence of ¼ MIC of LI14
Description: as §1, §2, §3, §4

MRSA T144 [2] = assay: Neutropenic mouse thigh infection model; format: in vivo, CD-1 mice; conditions: AMP 20 mg/kg i.p., 48 h
Description: Female CD-1 mice (n = 6 biologically independent animals per group) were first given cyclophosphamide (two consecutive injections of 150 and 100 mg kg^−1 at 4 and 1 day before infection) to construct neutropenia models. The mice’s right thighs were then injected with 100 μL MRSA T144 or E. coli B2 suspensions (10^5 CFUs per mouse). Post-infection of 1 h, 100 μL LI14 peptide (10 or 20 mg/kg), ampicillin/rifampicin (20 mg/kg) or a combination of LI14 with ampicillin/ rifampicin (10 + 20 mg/kg) were given by intraperitoneal injection. All mice were euthanized 48 h after drug administration, and right thigh muscle tissue was removed aseptically, homogenized, serially diluted, and plated on MHA to qualify bacterial loads after overnight incubation at 37 °C.

[3] = test system: sensitive E. coli ATCC 25922; assay: Checkerboard assay with LI14; format: cell-based, Escherichia coli; conditions: for FIC index: antibiotic in combination with LI14, checkerboard; for MICa of antibiotic: in the absence of LI14; for MICb of antibiotic / Potentiation: in the presence of ¼ MIC of LI14
Description: as §1, §2, §3, §4

S. aureus ATCC 29213 = assay: microbe, parasite or virus in culture; format: cell-based, Staphylococcus aureus; set-up: Antibacterial activity of LI14 derivates: unit not given here; conditions: S. aureus 29213; unit not given
Description: (§5) An antimicrobial activity study was conducted on all peptides against a panel of laboratory bacteria, including ATCC source and clinical isolates with resistance determinants. According to CLSI2021 guidelines, we tested the minimum inhibitory concentrations (MICs) of peptides using standard broth micro-dilutions. Briefly, bacteria grown to exponential phase were diluted in 1:1000 to MHB, subsequently, equivalent amounts of bacterial suspension (1.5 × 10^6 CFUs/mL) were mixed with different concentrations of peptides in a sterilized 96-well microtiter plate (Corning).

MRSA T144 [4] = assay: microbe, parasite or virus in culture; format: cell-based, Staphylococcus aureus; set-up: Antibacterial activity of LI14 derivates: unit not given here; conditions: MRSA T144; unit not given
Description: as §5

[5] = test system: E. coli B2 (blaNDM-5 + mcr-1); assay: microbe, parasite or virus in culture; format: cell-based, Escherichia coli; set-up: Antibacterial activity of LI14 derivates: unit not given here; conditions: E. coli B2; unit not given
Description: as §5

E. coli ATCC 25922 = assay: microbe, parasite or virus in culture; format: cell-based, Escherichia coli; set-up: Antibacterial activity of LI14 derivates: unit not given here; conditions: E. coli 25922; unit not given
Description: as §5

MRSA T144 [6] = format: cell-based, Staphylococcus aureus; conditions: T144
Description: MRSA T144 and E. coli B2 in the exponential growth phase were incubated with LI14 peptide supplemented with 10 mM Na^+, K^+, Mg^2+, 10% Dulbecco’s modified Eagle medium (DMEM), and 10% fetal bovine serum (FBS) for 16–18 h. The stability of LI14 was evaluated by the change of its antibacterial activity under different conditions.
LI14 were preincubated for 1 h at various temperatures (40–121 °C), pH (2–12), and proteases (pepsin, trypsin, and papain, final concentration 1 mg/mL). […] Following the incubation with the proteases, the leftover protease was precipitated with acetonitrile and removed by centrifugation at 3000 × g, followed by a MIC test.
Supplementary Table 4 Thermal, pH, salts and protease stability of AMPs against
MRSA T144 and E. coli B2 (MIC, μg/mL).
Treatment MRSA T144 E. coli B2

## CC1(C)S[C@@H]2[C@H](NC(=O)[C@H](N)c3ccccc3)C(=O)N2[C@H]1C(=O)O [Ampicillin]
MDR E. coli B2
  FIC index: 2
  MICa of antibiotic: > 128 µg/mL
  MICb of antibiotic: > 128 µg/mL
MRSA T144 [1]
  FIC index: 0.078
  MICa of antibiotic: 64 µg/mL
  MICb of antibiotic: 1 µg/mL
  Potentiation: 64 fold
MRSA T144 [2]; animal 1
  Bacterial load in thigh: 7.62 Log10CFUs/thigh
MRSA T144 [2]; animal 2
  Bacterial load in thigh: 7.65 Log10CFUs/thigh
MRSA T144 [2]; animal 3
  Bacterial load in thigh: 8.00 Log10CFUs/thigh
MRSA T144 [2]; animal 4
  Bacterial load in thigh: 8.03 Log10CFUs/thigh
MRSA T144 [2]; animal 5
  Bacterial load in thigh: 7.34 Log10CFUs/thigh
MRSA T144 [2]; animal 6
  Bacterial load in thigh: 7.15 Log10CFUs/thigh

## C[C@H]1c2cccc(O)c2C(=O)C2=C(O)[C@]3(O)C(=O)C(C(N)=O)=C(O)[C@@H](N(C)C)[C@@H]3[C@@H](O)[C@@H]21 [Doxycycline]
MDR E. coli B2
  FIC index: 0.25
  Potentiation: 8 fold
  MICa of antibiotic: 32 µg/mL
  MICb of antibiotic: 4 µg/mL
[3]
  FIC index: 0.25
  MICa of antibiotic: 0.5 µg/mL
  MICb of antibiotic: 0.063 µg/mL
  Potentiation: 8 fold
MRSA T144 [1]
  FIC index: 0.188
  MICa of antibiotic: 16 µg/mL
  MICb of antibiotic: 1 µg/mL
  Potentiation: 16 fold

## CC[C@H](C)[C@H](NC(=O)[C@H](CCCNC(=N)N)NC(=O)[C@@H]1CSSC[C@H](NC(=O)[C@H](CC(C)C)NC(=O)[C@H](CCCCN)NC(=O)[C@H](CCCCN)NC(=O)[C@@H](N)CC(C)C)C(=O)N[C@@H](CCCNC(=N)N)C(=O)N[C@@H]([C@@H](C)CC)C(=O)N[C@@H](CC(C)C)C(=O)N[C@@H](CCCCN)C(=O)N[C@@H](CCCCN)C(=O)N[C@@H](CC(C)C)C(=O)N1)C(N)=O [LI14 (S-S)] (H-LKKLCRILKKLCRI-NH2; disulfide 5-12 (inferred))
S. aureus ATCC 29213
  Antibacterial activity of LI14 derivates: 4
MRSA T144 [4]
  Antibacterial activity of LI14 derivates: 4
[5]
  Antibacterial activity of LI14 derivates: 4
E. coli ATCC 25922
  Antibacterial activity of LI14 derivates: 8
MRSA T144 [6]
  MIC: 4 µg/mL (≈ 2.32 µM)

## CN[C@H](CC(C)C)C(=O)N[C@H]1C(=O)N[C@@H](CC(N)=O)C(=O)N[C@H]2C(=O)N[C@H]3C(=O)N[C@H](C(=O)N[C@H](C(=O)O)c4cc(O)cc(O)c4-c4cc3ccc4O)[C@H](O)c3ccc(c(Cl)c3)Oc3cc2cc(c3O[C@@H]2O[C@H](CO)[C@@H](O)[C@H](O)[C@H]2O[C@H]2C[C@](C)(N)[C@H](O)[C@H](C)O2)Oc2ccc(cc2Cl)[C@H]1O [Vancomycin]
MDR E. coli B2
  FIC index: 0.078
  Potentiation: 64 fold
  MICa of antibiotic: 128 µg/mL
  MICb of antibiotic: 2 µg/mL
[3]
  FIC index: 0.375
  MICa of antibiotic: 64 µg/mL
  MICb of antibiotic: 8 µg/mL
  Potentiation: 8 fold
MRSA T144 [1]
  FIC index: 2.0
  MICa of antibiotic: 0.5 µg/mL
  MICb of antibiotic: 0.5 µg/mL

## AKKLCRILKKLCRI-NH2 [LI14-A1, Ala substitute of LI14, position 1]
S. aureus ATCC 29213
  Antibacterial activity of LI14 derivates: 16
MRSA T144 [4]
  Antibacterial activity of LI14 derivates: 64
[5]
  Antibacterial activity of LI14 derivates: 4
E. coli ATCC 25922
  Antibacterial activity of LI14 derivates: 16

## LAKLCRILKKLCRI-NH2 [LI14-A2, Ala substitute of LI14, position 2]
S. aureus ATCC 29213
  Antibacterial activity of LI14 derivates: 8
MRSA T144 [4]
  Antibacterial activity of LI14 derivates: 16
[5]
  Antibacterial activity of LI14 derivates: 4
E. coli ATCC 25922
  Antibacterial activity of LI14 derivates: 8

## LKALCRILKKLCRI-NH2 [LI14-A3, Ala substitute of LI14, position 3]
S. aureus ATCC 29213
  Antibacterial activity of LI14 derivates: 8-16
MRSA T144 [4]
  Antibacterial activity of LI14 derivates: 8
[5]
  Antibacterial activity of LI14 derivates: 8
E. coli ATCC 25922
  Antibacterial activity of LI14 derivates: 16

## LKKACRILKKLCRI-NH2 [LI14-A4, Ala substitute of LI14, position 4]
S. aureus ATCC 29213
  Antibacterial activity of LI14 derivates: 64
MRSA T144 [4]
  Antibacterial activity of LI14 derivates: 64
[5]
  Antibacterial activity of LI14 derivates: 8
E. coli ATCC 25922
  Antibacterial activity of LI14 derivates: 16-32

## LKKLARILKKLCRI-NH2 [LI14-A5]
S. aureus ATCC 29213
  Antibacterial activity of LI14 derivates: 16
MRSA T144 [4]
  Antibacterial activity of LI14 derivates: 16
[5]
  Antibacterial activity of LI14 derivates: 4
E. coli ATCC 25922
  Antibacterial activity of LI14 derivates: 4

## LKKLCAILKKLCRI-NH2 [LI14-A6, Ala substitute of LI14, Arg at position 6]
S. aureus ATCC 29213
  Antibacterial activity of LI14 derivates: > 128
MRSA T144 [4]
  Antibacterial activity of LI14 derivates: > 128
[5]
  Antibacterial activity of LI14 derivates: 32
E. coli ATCC 25922
  Antibacterial activity of LI14 derivates: 128

## LKKLCRALKKLCRI-NH2 [LI14-A7, Ala substitute of LI14, position 7]
S. aureus ATCC 29213
  Antibacterial activity of LI14 derivates: 64
MRSA T144 [4]
  Antibacterial activity of LI14 derivates: 64
[5]
  Antibacterial activity of LI14 derivates: 16
E. coli ATCC 25922
  Antibacterial activity of LI14 derivates: 32

## LKKLCRIAKKLCRI-NH2 [LI14-A8, Ala substitute of LI14, position 8]
S. aureus ATCC 29213
  Antibacterial activity of LI14 derivates: 128
MRSA T144 [4]
  Antibacterial activity of LI14 derivates: 64
[5]
  Antibacterial activity of LI14 derivates: 8
E. coli ATCC 25922
  Antibacterial activity of LI14 derivates: 16

## LKKLCRILAKLCRI-NH2 [LI14-A9, Ala substitute of LI14, position 9]
S. aureus ATCC 29213
  Antibacterial activity of LI14 derivates: 16
MRSA T144 [4]
  Antibacterial activity of LI14 derivates: 16
[5]
  Antibacterial activity of LI14 derivates: 4
E. coli ATCC 25922
  Antibacterial activity of LI14 derivates: 8-16

## LKKLCRILKALCRI-NH2 [LI14-A10, Ala substitute of LI14, position 10]
S. aureus ATCC 29213
  Antibacterial activity of LI14 derivates: 16-32
MRSA T144 [4]
  Antibacterial activity of LI14 derivates: 16
[5]
  Antibacterial activity of LI14 derivates: 8
E. coli ATCC 25922
  Antibacterial activity of LI14 derivates: 16-32

## LKKLCRILKKACRI-NH2 [LI14-A11, Ala substitute of LI14, position 11]
S. aureus ATCC 29213
  Antibacterial activity of LI14 derivates: 64
MRSA T144 [4]
  Antibacterial activity of LI14 derivates: 64
[5]
  Antibacterial activity of LI14 derivates: 8
E. coli ATCC 25922
  Antibacterial activity of LI14 derivates: 16

## LKKLCRILKKLARI-NH2 [LI14-A12]
S. aureus ATCC 29213
  Antibacterial activity of LI14 derivates: 8
MRSA T144 [4]
  Antibacterial activity of LI14 derivates: 16
[5]
  Antibacterial activity of LI14 derivates: 4
E. coli ATCC 25922
  Antibacterial activity of LI14 derivates: 2

## LKKLCRILKKLCAI-NH2 [LI14-A13, Ala substitute of LI14, position 13]
S. aureus ATCC 29213
  Antibacterial activity of LI14 derivates: 16
MRSA T144 [4]
  Antibacterial activity of LI14 derivates: 16
[5]
  Antibacterial activity of LI14 derivates: 4
E. coli ATCC 25922
  Antibacterial activity of LI14 derivates: 8

## LKKLCRILKKLCRA-NH2 [LI14-A14, Ala substitute of LI14, position 14]
S. aureus ATCC 29213
  Antibacterial activity of LI14 derivates: 16
MRSA T144 [4]
  Antibacterial activity of LI14 derivates: 32
[5]
  Antibacterial activity of LI14 derivates: 4
E. coli ATCC 25922
  Antibacterial activity of LI14 derivates: 16
